For 35 molecules, Ki results are on record in patent US9969687B2, “Compounds useful as CCR9 modulators” (Norgine B.V., priority 2013, dated 2018).

The target in test [1] is T1, CCR9 (Homo sapiens (Human), UniProt P51686). Put plainly: FLIPR calcium flux assay using hCCR9 over expressed cells (Chem1-hCCR9), TECK stimulation. The test is classed as cell-based. Conditions: Chem1-hCCR9 overexpressing cells. As for the experimental part:
Biological Activity: FLIPR Assay Using hCCR9 Over Expressed Cells
A calcium flux assay was used to determine the ability of the compounds to interfere with the binding between CCR9 and its chemokine ligand (TECK) in Chem1-hCCR9 overexpressing cells. hCCR9 overexpressing cells were seeded (25,000 cells/well) into black Poly-D-Lysine coated clear bottom 96-well plates (BD Biosciences, Cat #356640) and incubated overnight at 37° C./5% CO2 in a humidified incubator. Media was aspirated and cells washed twice with 100 μL assay buffer (1×HBSS, 20 mM HEPES) containing 2.5 mM Probenecid. A 0.3× Fluo-4 NW calcium dye was prepared in assay buffer containing 5 mM Probenecid and stored in the dark. Each well was loaded with 100 μL of 0.3× Fluo-4 NW calcium dye and incubated at 37° C./5% CO2 for 60 minutes and then at room temperature for 30 minutes. A half-log serially diluted concentration response curve was prepared at a 3× final assay concentration for each compound (10 μM-0.1 nM final assay concentration) and 50 μL of the compound then transferred to the cells (150 μL final volume) for 60 minutes prior to stimulation (30 minutes at 37° C./5% CO2 and 30 minutes at room temperature). TECK was diluted to 4× its EC80 in assay buffer (containing 0.1% [w/v] bovine serum albumin [BSA]) and 50 μL dispensed through the fluorometric imaging plate reader (FLIPR) instrument to stimulate the cells (200 μL final volume). The increase in intracellular calcium levels was measured with the FLIPR instrument. The potency of the compound as a CCR9 antagonist was calculated as an IC50 using GraphPad Prism software (variable slope four parameter). The Ki of the compound was determined from the IC50 values using the following equation. IC50/1+(Agonist (TECK) conc. used in assay/EC50 of agonist (TECK) generated on day of experiment) Ki calculation: […]
Background: Calcium flux is commonly read through the fluorescence of an indicator in the cells.

In test [2] the target is T1, CCR9. Kind of test: FLIPR calcium flux assay using MOLT4 cells, TECK stimulation. The test is classed as cell-based. Conditions: MOLT4 cells (human T-cell line). As for the experimental part: Biological Activity: FLIPR Assay Using MOLT4 Cells
A calcium flux assay was used to determine the ability of the compounds to interfere with the binding between CCR9 and its chemokine ligand (TECK) in MOLT4 cells (a human T-cell line). MOLT4 cells were seeded (100,000 cells/well) in corning cell culture plates (Cat #3603) in assay buffer (1×HBSS, 20 mM HEPES) containing 2.5 mM Probenecid. The plate was centrifuged at 1200 rpm for 3 minutes and incubated at 37° C./5% CO2 for 2 hours. A 0.3× Fluo-4 NW calcium dye was prepared in assay buffer containing 5 mM Probenecid and stored in the dark. Each well was loaded with 25 μl of 0.3× Fluo-4 NW calcium dye and incubated at 37° C./5% CO2 for 60 minutes and then at room temperature for 30 minutes. A half-log serially diluted concentration response curve was prepared at a 4× concentration for each (10 μM-0.1 nM final assay concentration) and 25 μL of the compound then transferred to the cells (100 μL final volume) for 60 minutes prior to stimulation (30 minutes at 37° C./5% CO2 and 30 minutes at room temperature). […] The increased in intracellular calcium levels was measured with the FLIPR instrument. The potency of the compound as CCR9 antagonist was calculated as an IC50 using GraphPad Prism software (variable slope four parameter). The Ki of the compound was determined from the IC50 values using the following equation. IC50/1+(Agonist (TECK) conc. used in assay/EC50 of agonist (TECK) generated on day of experiment) Ki calculation: […]

As a reminder, the Ki is a measure of affinity in units of concentration, obtained from inhibition or displacement.

T1 sequence (P51686 whole entry): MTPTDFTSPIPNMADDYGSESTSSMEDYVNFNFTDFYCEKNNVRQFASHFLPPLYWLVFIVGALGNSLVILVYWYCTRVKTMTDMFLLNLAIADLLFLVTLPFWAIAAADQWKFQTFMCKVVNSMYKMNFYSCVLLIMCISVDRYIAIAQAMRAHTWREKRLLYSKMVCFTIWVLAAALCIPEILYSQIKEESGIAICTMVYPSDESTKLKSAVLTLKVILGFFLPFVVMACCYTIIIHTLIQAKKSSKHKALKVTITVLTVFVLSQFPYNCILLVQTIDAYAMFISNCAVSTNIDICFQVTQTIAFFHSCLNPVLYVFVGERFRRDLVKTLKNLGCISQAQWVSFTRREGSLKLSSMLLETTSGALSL

For `Cn1ccc(CN2C(=O)c3c(Cl)ccc(NS(=O)(=O)c4ccc(C(C)(C)C)cc4)c3C2=O)n1` [Compound 193], the Ki came to 21 nM in test [1] and 16 nM in test [2].

Take `COc1ncccc1CN1C(=O)c2c(Cl)ccc(NS(=O)(=O)c3ccc(C(C)(C)C)cc3)c2C1=O` [Compound 247]: the Ki is 51 nM in test [1] and 78 nM in test [2]. For `CCOc1cc(N2C(=O)c3c(Cl)ccc(NS(=O)(=O)c4ccc(C(C)(C)C)cc4)c3C2=O)c[n+]([O-])c1` [Compound 197], in that order: 40 nM and 21 nM. For `CC(C)(C)c1ccc(S(=O)(=O)Nc2ccc(Cl)c3c2C(=O)N(Cc2ncccn2)C3=O)cc1` [Compound 204], in that order: 30 nM and 7 nM. As for `CC(C)(C)c1ccc(S(=O)(=O)Nc2ccc(Cl)c3c2C(=O)N(c2cc(C#N)ccn2)C3=O)cc1` [Compound 200], the Ki in test [1] is 92 nM; in test [2], 45 nM.

In the case of `Cn1cc(N2C(=O)c3c(Cl)ccc(NS(=O)(=O)c4ccc(C(C)(C)C)cc4)c3C2=O)ccc1=O` [Compound 282], the Ki was 23 nM in test [1] and 9 nM in test [2].

With `CC(C)(C)c1ccc(S(=O)(=O)Nc2ccc(Cl)c3c2C(=O)N(c2cc(F)ccn2)C3=O)cc1` [Compound 276], the inhibitory constant (Ki) was 91 nM in test [1] and 22 nM in test [2]. For `CC(C)(C)c1ccc(S(=O)(=O)Nc2ccc(Cl)c3c2C(=O)N(c2ccncc2)C3=O)cc1` [Compound 264], in that order: 18 nM and 11 nM. For `Cc1ccc(N2C(=O)c3c(Cl)ccc(NS(=O)(=O)c4ccc(C(C)(C)C)cc4)c3C2=O)[n+]([O-])c1` [Compound 229] the same measures were 63 nM and 46 nM.

Consider `CC(C)(C)c1ccc(S(=O)(=O)Nc2ccc(Cl)c3c2C(=O)N(c2cccnc2C(=O)O)C3=O)cc1` [Compound 287, 3-(4-((4-(tert-butyl)phenyl)sulfonamido)-7-chloro-1,3-dioxoisoindolin-2-yl)picolinic acid], for which the Ki was determined as 10 nM in test [1] and 22 nM in test [2]. Turning to `Cn1nccc1N1C(=O)c2c(Cl)ccc(NS(=O)(=O)c3ccc(C(C)(C)C)cc3)c2C1=O` [Compound 144], the Ki in test [1] was 23 nM; in test [2], 3 nM. Consider `CC(C)(C)c1ccc(S(=O)(=O)Nc2ccc(Cl)c3c2C(=O)N(c2ccc(F)cn2)C3=O)cc1` [Compound 219], for which the Ki in test [1] worked out at 30 nM; in test [2], 10 nM. With `CC(C)(C)c1ccc(S(=O)(=O)Nc2ccc(Cl)c3c2C(=O)N(c2cn[nH]c2)C3=O)cc1` [Compound 148, 4-(tert-butyl)-N-(7-chloro-1,3-dioxo-2-(1H-pyrazol-4-yl)isoindolin-4-yl)benzenesulfonamide], the Ki in test [1] came out at 94 nM; in test [2], 36 nM. For `COc1cc(CN2C(=O)c3c(Cl)ccc(NS(=O)(=O)c4ccc(C(C)(C)C)cc4)c3C2=O)c[n+]([O-])c1` [Compound 231], in that order: 89 nM and 50 nM. For `COc1ccc(N2C(=O)c3c(Cl)ccc(NS(=O)(=O)c4ccc(C(C)(C)C)cc4)c3C2=O)c(C)[n+]1[O-]` [Compound 243] the same measures were 115 nM and 34 nM. For `Cc1cc[n+]([O-])cc1CN1C(=O)c2c(Cl)ccc(NS(=O)(=O)c3ccc(C(C)(C)C)cc3)c2C1=O` [Compound 213] the same measures were 23 nM and 12 nM. For `CC(C)(C)c1ccc(S(=O)(=O)Nc2ccc(Cl)c3c2C(=O)N(c2sccc2C#N)C3=O)cc1` [Compound 179], the Ki was 57 nM in test [1] and 16 nM in test [2]. For `CC(C)(C)c1ccc(S(=O)(=O)Nc2ccc(Cl)c3c2C(=O)N(c2cccc(C#N)n2)C3=O)cc1` [Compound 207], in that order: 36 nM and 30 nM. As for `COC(=O)c1cc(N2C(=O)c3c(Cl)ccc(NS(=O)(=O)c4ccc(C(C)(C)C)cc4)c3C2=O)n(C)n1` [Compound 291], the inhibitory constant (Ki) worked out at 15 nM in test [1] and 5 nM in test [2]. In the case of `COc1c[n+]([O-])cc(N2C(=O)c3c(Cl)ccc(NS(=O)(=O)c4ccc(C(C)(C)C)cc4)c3C2=O)c1C` [Compound 245], the Ki in test [1] stood at 54 nM; in test [2], 47 nM. For `CC(C)(C)c1ccc(S(=O)(=O)Nc2ccc(Cl)c3c2C(=O)N(Cc2cccc(C#N)c2)C3=O)cc1` [Compound 126, 4-(tert-butyl)-N-(7-chloro-2-(3-cyanobenzyl)-1,3-dioxoisoindolin-4-yl)benzenesulfonamide], in that order: 343 nM and 158 nM. For the molecule `CCOc1cncc(N2C(=O)c3c(Cl)ccc(NS(=O)(=O)c4ccc(C(C)(C)C)cc4)c3C2=O)c1` [Compound 103], the figures for the Ki in test [1] and in test [2] were 242 nM and 128 nM, respectively. For `CCOC(=O)c1c(N2C(=O)c3c(Cl)ccc(NS(=O)(=O)c4ccc(C(C)(C)C)cc4)c3C2=O)ccc[n+]1[O-]` [Compound 290], in that order: 14 nM and 7 nM. For `Cc1ccc(N2C(=O)c3c(Cl)ccc(NS(=O)(=O)c4ccc(C(C)(C)C)cc4)c3C2=O)c(C)n1` [Compound 224] the same measures were 6 nM and 5 nM. `Cc1cc[n+]([O-])cc1N1C(=O)c2c(Cl)ccc(NS(=O)(=O)c3ccc(C(C)(C)C)cc3)c2C1=O` [Compound 188]: the Ki in test [1] worked out at 89 nM; in test [2], 15 nM. For `CC(C)(C)c1ccc(S(=O)(=O)Nc2ccc(Cl)c3c2C(=O)N(Cc2ccncc2)C3=O)cc1` [Compound 201], in that order: 17 nM and 8 nM. As for `Cn1cncc1N1C(=O)c2c(Cl)ccc(NS(=O)(=O)c3ccc(C(C)(C)C)cc3)c2C1=O` [Compound 192], the Ki in test [1] is 12 nM; in test [2] it was 4 nM. For `CC(C)(C)c1ccc(S(=O)(=O)Nc2ccc(Cl)c3c2C(=O)N(Cc2cc[n+]([O-])cc2)C3=O)cc1` [Compound 209] the same measures were 77 nM and 30 nM. Consider `Cc1cccc(CN2C(=O)c3c(Cl)ccc(NS(=O)(=O)c4ccc(C(C)(C)C)cc4)c3C2=O)n1` [Compound 254], for which the results for the Ki in test [1] and in test [2] were 68 nM and 58 nM, respectively. Take `O=C1c2cccc(NS(=O)(=O)c3ccc(C(F)(F)F)cc3)c2C(=O)N1c1cccnc1` [Compound 6]: in test [1], the Ki worked out at 5630 nM.

As for `O=C1c2cccc(NS(=O)(=O)c3ccc(F)c(C(F)(F)F)c3)c2C(=O)N1c1cccnc1` [Compound 8], the Ki in test [2] is 1320 nM. Take `CC(C)(C)c1ccc(S(=O)(=O)Nc2ccc(Cl)c3c2C(=O)N(c2cncc(C#N)c2)C3=O)cc1` [Compound 177]: the Ki in test [2] turned out to be 73 nM. Same read-out and setting: the result for `CC(C)(C)c1ccc(S(=O)(=O)Nc2ccc(C#N)c3c2C(=O)N(Cc2ccc[n+]([O-])c2)C3=O)cc1` [Compound 280] reads 37 nM. On the same count and under the same terms, the figure for `COc1cc(N2C(=O)c3c(Cl)ccc(NS(=O)(=O)c4ccc(C(C)(C)C)cc4)c3C2=O)c[n+]([O-])c1` [Compound 91, 3-(4-(4-(tert-butyl)phenylsulfonamido)-7-chloro-1,3-dioxoisoindolin-2-yl)-5-methoxypyridine 1-oxide] is 50 nM. Consider `CC(C)(C)c1ccc(S(=O)(=O)Nc2ccc(C#N)c3c2C(=O)N(C2CCOCC2)C3=O)cc1` [Compound 277], for which, in test [2], the inhibition constant (Ki) came out at 28 nM.
